According to patent US10139394B2, “Method for controlling cancer metastasis or cancer cell migration by modulating the cellular level of lysyl tRNA synthetase” (Medicinal Bioconvergence Research Center, priority 2008, dated 2018):

Test system: KRS and 67LR
Assay: Co-immunoprecipitation of KRS with 67LR
Type: cell-based, human
Conditions: 10 ug/ml of laminin for 1 hr; immunoprecipitation with 67LR antibody; FIG. 6
Protocol: FIGS. 1 to 6 show specific interaction between human KRS and laminin receptor. In FIG. 1, the interaction between full-length human KRS and 37LRP/p40 was determined by yeast two hybrid assay. AIMP1 and AIMP2, the two components of the multi-ARS complex, were used as positive and negative control, respectively. The positive interaction is indicated by blue colony formation on yeast medium containing X-gal. In FIG. 2, 37LRP was synthesized by in vitro translation in the presence of [^35S] methionine and subjected to pull-down with GST-KRS or GST. 37LRP co-precipitated with GST-KRS was detected by autoradiography. In FIG. 3, The peptide regions of KRS and 37LRP involved in their interaction was determined by yeast two hybrid assay as above. […] Myc-KRS was immunoprecipitated with anti-Myc antibody and co-precipitated 67LR and 37LRP were determined by immunoblotting. […] The cells were separated to cytoplasmic and membrane fractions and immunoprecipitated with anti-Myc antibody and co-precipitation of 37LRP and 67LR was determined by Western blotting. […]
In FIG. 7, A549 cells were treated with laminin (10 ug/ml) and the level of 67LR, 37LRP and KRS was determined by Western blotting at the indicated times. […] Myc-KRS was immunoprecipitated and co-precipitation of 67LR was determined by Western blotting. […]

- binding of 67LR and KRS: increased
Substance: laminin: laminin (Engelbreth-Holm-Swarm murine sarcoma) from Sigma
